These results are taken from ChEMBL document CHEMBL3259703, “Synthesis and preliminary biological evaluation of 1,2,3-triazole-Jaspine B hybrids as potential cytotoxic agents” (Eur J Med Chem, 2014).

Experiment [1] deals with MCF7. Description: Cell cycle arrest in human MCF7 cells assessed as accumulation at G2/M phase at 2 uM after 8 hrs using propidium iodide staining by flow cytometry (reference value: 19.35 %). In kind it is functional.
The test system of experiment [2] is MCF7. Description: Cell cycle arrest in human MCF7 cells assessed as accumulation at G2/M phase at 4 uM after 8 hrs using propidium iodide staining by flow cytometry (reference value: 19.35 %). In kind it is functional. A general note: A flow cytometer gives signals particle by particle.
The subject of experiment [3] is MCF7. Description: Cell cycle arrest in human MCF7 cells assessed as accumulation at G2/M phase at 2 uM after 16 hrs using propidium iodide staining by flow cytometry (reference value: 20.08 %). The class given is functional.
The subject of experiment [4] is MCF7. Description: Cell cycle arrest in human MCF7 cells assessed as accumulation at G0/G1 phase at 4 uM after 16 hrs using propidium iodide staining by flow cytometry (reference value: 46.01 %). The class given is functional.
Experiment [5] relates to MCF7. Description: Cell cycle arrest in human MCF7 cells assessed as accumulation at G2/M phase at 4 uM after 16 hrs using propidium iodide staining by flow cytometry (reference value: 20.08 %). In kind it is functional.
The next experiment deals with MGC-803. Description: Antiproliferative activity against human MGC803 cells after 48 hrs by MTT assay. The class given is functional, cell-based. The conditions noted are these: MGC-803, 48 h.
Experiment [6] relates to MCF7. Description: Induction of apoptosis in human MCF7 cells assessed as viable cells at 2 uM after 8 hrs using Annexin V/PI double staining by flow cytometry (reference value: 84.3 %). The class given is functional. The following applies: MCF7, 8 h, read-out: Activity.
The test system of experiment [7] is MCF7. Description: Induction of apoptosis in human MCF7 cells assessed as early apoptotic cells at 4 uM after 8 hrs using Annexin V/PI double staining by flow cytometry (reference value: 8.2 %). In kind it is functional.
Experiment [8] has as its system MCF7. Description: Induction of apoptosis in human MCF7 cells assessed as necrotic cells at 4 uM after 8 hrs using Annexin V/PI double staining by flow cytometry (reference value: 0.6 %). The class given is functional.
For experiment [9], the system named is MCF7. Description: Induction of apoptosis in human MCF7 cells assessed as necrotic cells at 8 uM after 8 hrs using Annexin V/PI double staining by flow cytometry (reference value: 0.6 %). The class given is functional.
Experiment [10] concerns MCF7. Description: Induction of apoptosis in human MCF7 cells assessed as early apoptotic cells at 4 uM after 16 hrs using Annexin V/PI double staining by flow cytometry (reference value: 11.1 %). In kind it is functional.

The structures appear in SMILES notation.

As to `CCCCCCCCCCCCCCCCCCn1cc(COC[C@@H]2OC[C@H](N)[C@H]2O)nn1`, the Activity in the experiment with MCF7 [1] stood at 27.97%; in the experiment with MCF7 [2] it was 30.72%; with MCF7 [3], 28.6%; in the experiment on MCF7 [4], 42.05%; in the experiment with MCF7 [5], 36.4%; in the experiment on MCF7 [7], 13.9%. Moreover, the Activity is 0.5% in the experiment with MCF7 [8], 1.4% in the experiment with MCF7 [9] and 45% in the experiment on MCF7 [10]. In the experiment with MGC-803, this compound registered an IC50 of 3.11 µM. For the same compound, in the experiment with MCF7 [6], the viability at 2 µM was determined as 81%.

In general, IC50 refers to the midpoint of a concentration-inhibition curve. Higher therefore signals a need for much substance.
